Assay results reported in PubChem BioAssay (NCI).
Values joined by “and” are separate entries in the source; they are usually repeats but may differ in a detail not shown here. Equal entries are not always repeated.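 Method: 48-hour compound exposure of cells in 96-well plates, five concentrations, linear interpolation of endpoints. Here, GI50 denotes the concentration required for 50% inhibition of growth. TGI denotes the concentration required for complete inhibition of growth.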 Where a SMILES comes first, the peptide text is derived from it. [ ]: non-standard residue; d: D form. The star is where a group is joined. Phe(4-NO2) = N[CH](Cc1ccc([N+](=O)[O-])cc1)C(=O)O; Boc = CC(C)(C)OC(=O)*; OtBu = CC(C)(C)O*

How the values were obtained:
Assay in all cases: inhibition of tumour cell growth, NCI panel, 48 h
[1] = system: ACHN renal
[2] = system: EKVX NSCLC
[3] = system: MDA-MB-435
[4] = system: NCI-H23 lung
[5] = system: NCI-H522 lung
[6] = system: OVCAR-4 ovarian
[7] = system: SK-MEL-2 melanoma
[8] = system: SK-MEL-5 melanoma
[9] = system: SN12C renal
[10] = system: UACC-257 melanoma

Row | SMILES | TGI [1] | TGI [2] | TGI [3] | TGI [4] | TGI [5] | TGI [6] | TGI [7] | TGI [8] | TGI [9] | TGI [10] | GI50 [1] | GI50 [6] | GI50 [7] | GI50 [2] | GI50 [3] | GI50 [4] [µM] | GI50 [5] | GI50 [9] | GI50 [10]
1 | COc1ccc(C[C@H]2COC(=O)[C@@H]2Cc2cc(OC)c(OC)c(OC)c2)cc1OC | > 100 µM | > 100 µM | > 100 µM | > 100 µM | > 100 µM | > 100 µM | > 100 µM | > 74.4 µM | > 100 µM | > 100 µM |  |  |  |  |  |  |  |  | 
2 | C[C@@H](C[C@@H](O)[C@H](O)C(C)(C)O)[C@H]1CC=C2[C@]3(C)[C@H](O)C[C@H]4C(C)(C)[C@H](O)CC[C@]4(C)[C@H]3CC[C@@]21C | 27.4 µM | 26.1 µM | 31.4 µM | 33.6 µM | 28 µM | 27.5 µM | 34.9 µM | 28.1 µM | 31 µM | 32 µM |  |  |  |  |  |  |  |  | 
3 | Cc1cc(S(=O)(=O)NC(=NCC(=O)NN)NN)c(S)cc1Cl | > 10 µM | > 10 µM | > 10 µM | > 10 µM | > 10 µM | > 10 µM | > 10 µM | > 10 µM | > 10 µM | > 10 µM |  |  |  |  |  |  |  |  | 
4 | CN(C)CCNc1nc2ccccc2c2c1C(=O)c1ccccc1-2 | 0.601 µM | 3.09 µM | 1.12 µM | 1.82 µM | 0.895 µM | 1.41 µM | 1.55 µM | 1.92 µM | 0.45 µM | 3.7 µM |  |  |  |  |  |  |  |  | 
5 | CC(C)[Si]1(C(C)C)OCC2OC(n3cnc4c(N)ncnc43)C(N)C2O[Si](C(C)C)(C(C)C)O1 (stereo unspecified) | 21.6 µM | > 66.9 µM | 30.7 µM | 26.5 µM | 26.4 µM | > 100 µM | 24.6 µM | 9.01 µM | 27.9 µM | 32.4 µM |  |  |  |  |  |  |  |  | 
6 | c1ccc(COc2ncccc2C2SCCCS2)cc1 | > 100 µM | > 100 µM | > 100 µM | > 100 µM | > 100 µM | > 100 µM | > 100 µM | > 100 µM | > 100 µM | > 100 µM |  |  |  |  |  |  |  |  | 
7 | O=C1O/C(=C\c2ccc(O)cc2)C(c2ccc(O)c(Cl)c2)=C1Br | 30 µM | 40.7 µM | 53.2 µM | 59.2 µM | 20.5 µM | 38.4 µM | 28.5 µM | 25.9 µM | 46.4 µM | 26.8 µM |  |  |  |  |  |  |  |  | 
8 | COc1cc2c(cc1OC)C1Cc3ccccc3CN1CCC2 (stereo unspecified) | > 100 µM | > 100 µM | > 100 µM | > 100 µM | > 100 µM | > 100 µM | > 100 µM | > 100 µM | > 100 µM | > 100 µM |  |  |  |  |  |  |  |  | 
9 | COC(=O)CNC(=O)/C=C/[C@H](O[Si](C)(C)C(C)(C)C)[C@H](/C=C/C(=O)NCC(=O)OC)O[Si](C)(C)C(C)(C)C | > 25 µM | > 25 µM | > 25 µM | > 25 µM | > 25 µM | > 25 µM | > 25 µM | > 25 µM | > 25 µM | > 25 µM |  |  |  |  |  |  |  |  | 
10 | COc1cc(/C=C2\C[C@H]3[C@@H]4CC=C5C[C@@H](N6CCCC6)CC[C@]5(C)[C@H]4CC[C@]3(C)[C@H]2OC(C)=O)cc(OC)c1OC | 32.9 µM | 27.3 µM | 26.8 µM | 28.5 µM | 30.4 µM | 34.8 µM | 31.6 µM | 28.4 µM | 27.8 µM | 33.8 µM |  |  |  |  |  |  |  |  | 
11 | C=CCN1C(=O)/C(=C/c2ccc(Cl)cc2)N=C1SC1OC(COC(C)=O)C(OC(C)=O)C(OC(C)=O)C1OC(C)=O (stereo unspecified) | > 100 µM | > 100 µM | > 66.3 µM and 64.8 µM | > 100 µM and 76.2 µM | 17.8 µM and 42.9 µM | 28.2 µM and 67.1 µM | 34.6 µM and 95.8 µM | > 100 µM | > 100 µM | 45.2 µM and 74.4 µM | 14.5 µM and 37.4 µM | 4.14 µM and 16.7 µM | 12.6 µM and 30.1 µM |  |  |  |  |  | 
12 | CN1C/C(=C\c2ccccc2[N+](=O)[O-])C(=O)/C(=C/c2ccccc2[N+](=O)[O-])C1 | 1.46 µM and 0.628 µM | 13.1 µM and 11 µM | 3.1 µM and 0.706 µM | 3.26 µM and > 20.7 µM | 1.05 µM and 0.396 µM | 2.27 µM and 0.94 µM | 8.87 µM and 4.36 µM | 2.31 µM and 2.91 µM | 4.88 µM and 2.22 µM | 0.481 µM and 3.5 µM | 0.532 µM and 0.228 µM | 0.708 µM and 0.298 µM |  | 2.94 µM and 0.554 µM | 0.86 µM and 0.254 µM | 0.868 | 0.437 µM and 0.187 µM | 1.98 µM and 0.809 µM | 0.265 µM and 1.46 µM
13 | COc1ccc(C=O)cc1Oc1ccc(C[C@H]2c3c(cc(OC)c4c3Oc3cc5c(cc3O4)CCN(C)C5=O)CCN2C)cc1 | 18.4 µM | 22.3 µM | 21.7 µM | 16 µM | 18.1 µM | 17.7 µM | 22.9 µM | 19.4 µM | 43 µM | 17.6 µM |  |  |  |  |  |  |  |  | 
14 | C=C1c2nc3ccccc3n2C=C(c2ccccc2)N1c1ccc(OC)cc1 | 28.7 µM | > 100 µM | > 100 µM | 74.4 µM | 16.1 µM | > 100 µM | > 100 µM | 38.2 µM | > 100 µM | > 100 µM |  |  |  |  |  |  |  |  | 
15 | CN1C(=O)[C@@]2(C=CC3(CC2)OCCO3)c2ccccc21 | > 50 µM | > 50 µM | > 50 µM | > 50 µM | > 32.4 µM | > 50 µM | > 50 µM | > 50 µM | > 50 µM | > 50 µM |  |  |  |  |  |  |  |  | 
16 | C=CCOn1c(C=C)nc2c(C)cccc21 | 7.15 µM | 29.2 µM | 3.4 µM | 24.1 µM | 4.87 µM | 24 µM | 4.79 µM | 12.7 µM | 13.2 µM | 12.1 µM |  |  |  |  |  |  |  |  | 
17 | Clc1ncc(C(Cl)(Cl)Cl)nc1-c1ccccc1 | 3.19 µM | 6.02 µM | 3.54 µM | 6.07 µM | 6.72 µM | 17 µM | 5.04 µM | 26.4 µM | 8.57 µM | 4.76 µM |  |  |  |  |  |  |  |  | 
18 | COc1cccc(N2N=C3c4ccccc4-n4c(nc5ccccc54)C3C2N)c1 (stereo unspecified) | > 100 µM | > 100 µM | > 100 µM | > 100 µM | > 100 µM | > 100 µM | > 100 µM | > 100 µM | > 100 µM | > 100 µM |  |  |  |  |  |  |  |  | 
19 | CN(Cc1nc2c(N)nc(N)nc2nc1N)c1ccc(C(=O)NC(CCC(=O)O)C(=O)O)cc1 (stereo unspecified) | > 100 µM | > 100 µM | > 100 µM | > 100 µM | > 100 µM | > 100 µM | > 100 µM | > 100 µM | > 100 µM | > 100 µM |  |  |  |  |  |  |  |  | 
20 | CCC1(O)CN(CCOC)[C@H]2C[C@@H]1C(=O)c1[nH]c3ccccc3c12 (stereo partly specified) | > 100 µM | > 100 µM | > 100 µM | > 100 µM | > 100 µM | > 100 µM | > 100 µM | > 100 µM | > 100 µM | > 100 µM |  |  |  |  |  |  |  |  | 
21 | CCOc1cc(C=O)ccc1O | > 100 µM | > 100 µM | > 100 µM | > 100 µM | > 100 µM | > 100 µM | > 100 µM | > 100 µM | > 100 µM | > 100 µM |  |  |  |  |  |  |  |  | 
22 | COC(=O)C(Cc1ccc([N+](=O)[O-])cc1)NC(=O)C(CC(=O)OC(C)(C)C)NC(=O)OC(C)(C)C (stereo unspecified) (Boc-Asp(OtBu)-[Phe(4-NO2)]-OMe; configuration not given here) | > 100 µM | > 100 µM | > 100 µM | > 100 µM | > 100 µM | > 100 µM | > 100 µM | > 100 µM | > 100 µM | > 100 µM |  |  |  |  |  |  |  |  | 
23 | CN(C)CCn1c(=O)c2ccc(NCCNCCO)c3c(=O)c4cc(O)ccc4n(c1=O)c23 | 8.64 µM | 14.3 µM | 6.53 µM | 3.64 µM | 3.58 µM | 3.55 µM | 6.85 µM | 5.22 µM | 5.15 µM | 19.2 µM |  |  |  |  |  |  |  |  | 
24 | COc1cc(C2S/C(=C/c3ccccc3)C(=O)N2c2ccc(Cl)cc2)cc(OC)c1OC (stereo unspecified) | > 100 µM | > 100 µM | 24.8 µM | > 100 µM | 21.2 µM | > 100 µM | > 30.2 µM | > 100 µM | > 100 µM | > 100 µM |  |  |  |  |  |  |  |  | 
25 | CC(=O)c1nccc2c1c(C)nc1ccccc12 | > 100 µM | > 100 µM | > 100 µM | > 100 µM | > 100 µM | > 100 µM | > 100 µM | > 100 µM | > 100 µM | > 100 µM |  |  |  |  |  |  |  |  | 
26 | OCc1ccccc1OC1OC(CO)C(O)C(O)C1O (stereo unspecified) | > 100 µM | > 100 µM | > 100 µM | > 100 µM | > 100 µM | > 100 µM | > 100 µM | > 100 µM | > 100 µM | > 100 µM |  |  |  |  |  |  |  |  | 
27 | O=C(O)CNC(=O)c1cccc2c(=O)c3ccccc3[nH]c12 | > 100 µM | > 100 µM | > 100 µM | > 100 µM | > 100 µM | > 100 µM | > 100 µM | > 100 µM | > 100 µM | > 100 µM |  |  |  |  |  |  |  |  | 
